Publication PMC8920097, “Prediction of hERG inhibition of drug discovery compounds using biomimetic HPLC measurements” (ADMET & DMPK, 2021)
Like-named read-outs stand apart in the source and are kept apart here.

How the values were obtained:
[1] = set-up: method as in PMID 11472245; settings: cited from earlier work
hERG channel = settings: cited from earlier work
[2] = biological target: human serum albumin (HSA) (Homo sapiens, UniProt P02768); assay: Protein binding on Chiralpak HSA HPLC column; settings: pH 7.4, Chiralpak HSA
Method: (§1) The measurement of the biomimetic properties of the available drugs was conducted in our laboratories. Generic gradient HPLC methods were used to determine the chromatographic hydrophobicity Index (CHI) using mobile phases at three different pH values. The protein binding of the compounds was measured using immobilised human serum albumin (HSA), and alpha-1-acid-glycoprotein (AGP) stationary phases. The phospholipid-binding was measured using the immobilised artificial membrane (IAM) stationary phase. The aim was to establish relationships between the cardiotoxicity potential and the biomimetic binding properties of the drugs and to evaluate their predictive performance.

[3] = Charge character of the drugs at pH 7.4; format: physicochemical
[4] = system: alpha-1-acid-glycoprotein (AGP); assay: Protein binding on Chiralpak AGP HPLC column; settings: pH 7.4, Chiralpak AGP
Method: as §1

[5] = Phospholipid binding at pH 7.4 on IAM PC.DD2 HPLC column; format: physicochemical; set-up: key to CHI IAM: approximates acetonitrile concentration (%) in mobile phase at elution; settings: for CHI IAM: pH 7.4; for log k IAM: pH 7.4, derived from CHI IAM by equation 1
Method: The phospholipid-binding was measured using an IAM PC.DD2 column with dimensions of 100 x 4.6 mm (Regis Technologies Inc., Morton Grove, IL, USA). The gradient retention times were measured using a 50 mM ammonium acetate mobile phase with the pH adjusted to 7.4. The mobile phase flow rate was 1.5 mL/min. […] The cycle time was 6 min, plus an additional 1 min equilibration time was applied while the injector prepared for the next injection. The gradient retention times were calibrated with the acetophenone homologues for which the CHI IAM values have been established using isocratic measurements. […] The CHI Index on the IAM column (CHI IAM) approximates the acetonitrile concentration in the mobile phase when the compound elutes. […] The CHI IAM values have been converted to log k IAM values derived from the CHI IAM values using equation 1. It represents the equivalent value derived from several isocratic measurements with extrapolated log retention factors to 100 % aqueous mobile phase. The log k IAM values can be converted to log K (IAM) values and show linear relationships with the octanol/water partition coefficients.

[6] = CHI lipophilicity by gradient reversed-phase HPLC (Gemini NX-C-18); settings: for chromatographic logD: Gemini NX-C-18 reversed-phase HPLC column, pH 7.4; for chromatographic logP: reversed-phase HPLC, Gemini NX-C-18 column (50 x 3 mm, 5 µm)
Method: The Chromatographic Hydrophobicity Index (CHI) was measured using the compounds’ calibrated gradient retention times obtained from an Agilent 1100 HPLC fitted with a Gemini NX-C-18 column (Phenomenex Ltd Macclesfield, UK) with dimensions of 50 x 3 mm and 5 μm particle size. […] The mobile phase B was 100 % acetonitrile. […] An acetonitrile linear gradient was used from 0 to 100 %. […] The retention time values for a standard set of compounds listed in Table 1 were used to convert the drug retention times to CHI values.

[7] = literature values, mean where several reported, molar

Chain of human serum albumin (HSA) (P02768 25-609): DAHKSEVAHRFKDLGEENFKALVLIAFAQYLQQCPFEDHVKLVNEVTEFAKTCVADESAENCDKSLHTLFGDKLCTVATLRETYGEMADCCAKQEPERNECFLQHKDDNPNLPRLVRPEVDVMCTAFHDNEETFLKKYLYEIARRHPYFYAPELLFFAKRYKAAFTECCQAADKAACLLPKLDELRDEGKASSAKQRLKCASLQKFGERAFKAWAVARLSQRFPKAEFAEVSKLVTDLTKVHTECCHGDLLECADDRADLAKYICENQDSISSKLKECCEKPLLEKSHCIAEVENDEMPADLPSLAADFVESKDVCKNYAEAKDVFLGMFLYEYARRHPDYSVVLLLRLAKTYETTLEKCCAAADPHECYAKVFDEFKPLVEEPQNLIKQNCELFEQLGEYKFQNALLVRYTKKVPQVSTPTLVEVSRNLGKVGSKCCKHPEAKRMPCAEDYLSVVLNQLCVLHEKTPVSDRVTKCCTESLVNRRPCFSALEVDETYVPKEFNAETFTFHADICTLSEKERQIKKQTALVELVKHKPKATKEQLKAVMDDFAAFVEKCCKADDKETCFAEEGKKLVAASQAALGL

c1ccc2[nH]cnc2c1 [Benzimidazole]
CHI at pH 2.6 ([1]; calibration set): 6.3 | CHI at pH 7.4 ([1]; calibration set): 34.3 | CHI at pH 10.5 ([1]; calibration set): 30.6

COc1cc2c(c(OC)c1OC)-c1ccc(OC)c(=O)cc1[C@@H](NC(C)=O)CC2 [Colchicine]
CHI at pH 2.6 [1]: 43.9 | CHI at pH 7.4 [1]: 45.0 | CHI at pH 10.5 [1]: 43.9

c1ccc2[nH]ccc2c1 [Indole]
CHI at pH 2.6 [1]: 72.1 | CHI at pH 7.4 [1]: 71.5 | CHI at pH 10.5 [1]: 72.1

COCCc1ccc(OCC(O)CNC(C)C)cc1 (stereo not drawn) [Metoprolol]
hERG pIC50 (hERG channel; [7]): 3.84 | log k HSA [2]: -0.72 | Charge [3]: Basic | log k AGP [4]: -0.27 | CHI IAM [5]: 35.38 | log k IAM [5]: 2.05 | chromatographic logD [6]: 0.77

Cc1nccn1CC1CCc2c(c3ccccc3n2C)C1=O (stereo not drawn) [Ondansetron]
hERG pIC50 (hERG channel; [7]): 5.73 | log k HSA [2]: 0.54 | Charge [3]: Weak Base | log k AGP [4]: 1.30 | CHI IAM [5]: 39.01 | log k IAM [5]: 2.22 | chromatographic logD [6]: 1.33 | chromatographic logP [6]: 1.66

CCCN1C[C@H](CSC)C[C@@H]2c3cccc4[nH]cc(c34)C[C@H]21 [Pergolide]
hERG pIC50 (hERG channel; [7]): 6.52 | log k HSA [2]: 0.73 | Charge [3]: Basic | log k AGP [4]: 1.04 | log k IAM [5]: 2.85 | chromatographic logD [6]: 2.47 | chromatographic logP [6]: 3.81

c1ccc(-c2nn[nH]n2)cc1 [Phenyl tetrazole]
CHI at pH 2.6 ([1]; calibration set): 42.2 | CHI at pH 7.4 ([1]; calibration set): 23.6 | CHI at pH 10.5 ([1]; calibration set): 16.0

O=C1NC(=O)C(c2ccccc2)(c2ccccc2)N1 [Phenytoin]
hERG pIC50 (hERG channel): 3.71 | log k HSA [2]: 0.69 | Charge [3]: Weak Acid | log k AGP [4]: 0.15 | CHI IAM [5]: 29.66 | log k IAM [5]: 1.78 | chromatographic logD [6]: 1.73 | chromatographic logP [6]: 1.85

O=c1[nH]c2ccccc2n1C1CCN(CCCC(c2ccc(F)cc2)c2ccc(F)cc2)CC1 [Pimozide]
hERG pIC50 (hERG channel): 6.43 | log k HSA [2]: 1.41 | Charge [3]: Weak Base | log k AGP [4]: 1.47 | log k IAM [5]: 2.83 | chromatographic logD [6]: 3.03 | chromatographic logP [6]: 3.89

CCCOC(C(=O)OC1CCN(C)CC1)(c1ccccc1)c1ccccc1 [Propiverine]
hERG pIC50 (hERG channel; [7]): 5.22 | log k HSA [2]: 1.01 | Charge [3]: Basic | log k AGP [4]: 0.94 | log k IAM [5]: 3.12 | chromatographic logD [6]: 3.84 | chromatographic logP [6]: 5.05

COc1ccc(CN(CCN(C)C)c2ccccn2)cc1 [Pyrilamine]
hERG pIC50 (hERG channel): 5.18 | log k HSA [2]: 0.44 | Charge [3]: Basic | log k AGP [4]: 0.49 | CHI IAM [5]: 46.62 | log k IAM [5]: 2.56 | chromatographic logD [6]: 1.72 | chromatographic logP [6]: 3.32

CC[C@H]1OC(=O)[C@H](C)[C@@H](O[C@H]2C[C@@](C)(OC)[C@@H](O)[C@H](C)O2)[C@H](C)[C@@H](O[C@@H]2O[C@H](C)C[C@H](N(C)C)[C@H]2O)[C@](C)(O)C[C@@H](C)/C(=N\OCOCCOC)[C@H](C)[C@@H](O)[C@]1(C)O [Roxithromycin]
hERG pIC50 (hERG channel; [7]): 4.44 | log k HSA [2]: -0.07 | Charge [3]: Basic | log k AGP [4]: 0.60 | CHI IAM [5]: 51.33 | log k IAM [5]: 2.78 | chromatographic logD [6]: 1.95 | chromatographic logP [6]: 3.7

CCOc1ccccc1OCCN[C@H](C)Cc1ccc(OC)c(S(N)(=O)=O)c1 [Tamsulosin]
hERG pIC50 (hERG channel; [7]): 4.89 | log k HSA [2]: 0.36 | Charge [3]: Basic | log k AGP [4]: 0.60 | log k IAM [5]: 2.00 | chromatographic logD [6]: 1.43 | chromatographic logP [6]: 2.01

O=C1Cc2cc(CCN3CCN(c4nsc5ccccc45)CC3)c(Cl)cc2N1 [Ziprasidone]
hERG pIC50 (hERG channel): 6.44 | log k HSA [2]: 1.42 | Charge [3]: Weak Base | log k AGP [4]: 1.09 | CHI IAM [5]: 47.92 | log k IAM [5]: 2.62 | chromatographic logD [6]: 2.98 | chromatographic logP [6]: 2.96
